Results on 15 compounds are retold here after PubChem BioAssay (NCI).

Some test systems named below: IGROV1 ovarian; OVCAR-3 ovarian; OVCAR-5 ovarian; SF-295 CNS; SF-539 CNS; SNB-75 CNS; UO-31 renal; HS 578T breast; MDA-MB-231 breast; OVCAR-8 ovarian.
Holding throughout (experiment): NCI tumour cell line growth inhibition, 48 h

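All cell lines were grown in 96-well plates and treated with compound for 48 hours. TGI is the concentration that stops growth completely.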 Where a SMILES comes first, the peptide text is derived from it. The star is where a group is joined. ONb = O=[N+]([O-])c1ccc(CO*)cc1; Boc = CC(C)(C)OC(=O)*

With `Cc1c2cnccc2c(C)c2c1c1ccccc1n2CCCCCCNCc1ccccc1`, the TGI with IGROV1 ovarian was 3.85 µM; in the experiment with OVCAR-3 ovarian, 4.01 µM; in the experiment with OVCAR-5 ovarian, 3.31 µM; in the experiment on SF-295 CNS, 3.47 µM; with SF-539 CNS it was 3.61 µM; in the experiment on SNB-75 CNS, 3.9 µM. Further, in the experiment with UO-31 renal, the TGI was 3.79 µM.
For the compound `COc1ccc(C(SCCO)(c2ccccc2)c2ccccc2)cc1`, the TGI amounted to 59.2 µM with HS 578T breast; 31 µM in the experiment on MDA-MB-231 breast; 31.8 µM in the experiment with OVCAR-3 ovarian; 36.4 µM in the experiment with OVCAR-5 ovarian; 38.5 µM in the experiment with OVCAR-8 ovarian; 28.6 µM in the experiment on SF-295 CNS. Also, the TGI in the experiment on SF-539 CNS is 30.2 µM; with SNB-75 CNS, 25.7 µM; with UO-31 renal, 28.1 µM.
As for `N#CCCC1(CCC#N)CCCCCCCCC(CCC#N)(CCC#N)C(=O)C1=O`, the TGI with HS 578T breast, with OVCAR-3 ovarian, in the experiment on OVCAR-5 ovarian, in the experiment on OVCAR-8 ovarian, in the experiment with SF-295 CNS and in the experiment on SF-539 CNS was above 100 µM each time. Moreover, in the experiment with SNB-75 CNS, the TGI was above 100 µM.
On to `CCOC(=O)Cc1nc2sc(S(N)(=O)=O)nn2c1Br`, for which the TGI in the experiment with HS 578T breast was above 100 µM; in the experiment on IGROV1 ovarian, 90.8 µM; in the experiment with MDA-MB-231 breast it was 44.6 µM; in the experiment with OVCAR-3 ovarian, 98.5 µM; in the experiment with OVCAR-5 ovarian, above 100 µM; in the experiment on OVCAR-8 ovarian it was 47.7 µM. Also, the results for the TGI in the experiment on SF-295 CNS, with SNB-75 CNS and with UO-31 renal were above 100 µM, above 100 µM and 29.4 µM, respectively.
Take `N#C/C(=C\c1cc(Cl)cc(Cl)c1)c1ccccn1`: the TGI with IGROV1 ovarian, in the experiment with OVCAR-3 ovarian, in the experiment on OVCAR-5 ovarian, in the experiment with OVCAR-8 ovarian, with SF-295 CNS and in the experiment on SF-539 CNS was above 100 µM in each case. The TGI is 36 µM in the experiment with SNB-75 CNS and above 100 µM in the experiment with UO-31 renal.
As to `Cc1ccc(-n2[nH]nc(C#N)c2=O)cc1`, the TGI in the experiment with HS 578T breast, in the experiment on IGROV1 ovarian, in the experiment on MDA-MB-231 breast, with OVCAR-3 ovarian, in the experiment with OVCAR-5 ovarian and in the experiment with OVCAR-8 ovarian was above 100 µM each time. For the same compound, the TGI with SF-295 CNS, with SNB-75 CNS and with UO-31 renal was above 100 µM each time.
As to `O=C(/C=C/c1ccc(/C=C/C(=O)c2ccc(O)cc2)cc1)c1ccc(O)cc1`, the TGI in the experiment on HS 578T breast, with MDA-MB-231 breast, in the experiment with OVCAR-3 ovarian, in the experiment on OVCAR-5 ovarian, with OVCAR-8 ovarian and in the experiment with SF-295 CNS was above 100 µM each time. Moreover, the TGI in the experiment with SF-539 CNS, in the experiment with SNB-75 CNS and with UO-31 renal was above 100 µM throughout.
For `CN1CCC(CN2c3ccccc3Sc3ccccc32)CC1`, the TGI came to 30.4 µM with IGROV1 ovarian; 29 µM in the experiment on OVCAR-3 ovarian; 33.5 µM in the experiment with OVCAR-5 ovarian; 31.2 µM in the experiment on OVCAR-8 ovarian; 29.3 µM in the experiment on SF-295 CNS; 28.5 µM with SF-539 CNS. Moreover, the TGI in the experiment on UO-31 renal was 21.8 µM.
Regarding `CSc1ccc(NC(=S)NN(C)C)cc1`, the TGI with HS 578T breast, in the experiment with IGROV1 ovarian, with MDA-MB-231 breast, in the experiment on OVCAR-3 ovarian, with OVCAR-8 ovarian and in the experiment on SF-295 CNS was above 10 µM in each case. The TGI in the experiment on SF-539 CNS, in the experiment on SNB-75 CNS and in the experiment with UO-31 renal was above 10 µM throughout.
As for `COC1(OC)CC(CO)(CNc2cc(Cl)nc(N)n2)C1`, the TGI in the experiment with HS 578T breast, in the experiment with IGROV1 ovarian, in the experiment with MDA-MB-231 breast, in the experiment on OVCAR-3 ovarian, with OVCAR-5 ovarian and in the experiment on OVCAR-8 ovarian was above 100 µM in each case. For the same compound, the TGI in the experiment on SF-295 CNS, with SF-539 CNS and in the experiment on UO-31 renal was above 100 µM throughout.
Consider `Cc1cc(NC[C@H](O)[C@H](O)[C@H](O)CO)c(Sc2cc(=O)[nH]c(=O)[nH]2)cc1C`, for which the TGI in the experiment with HS 578T breast, in the experiment with IGROV1 ovarian, in the experiment with MDA-MB-231 breast, with OVCAR-3 ovarian, in the experiment on OVCAR-5 ovarian and in the experiment with OVCAR-8 ovarian was above 62.5 µM in each case. The TGI in the experiment with SF-295 CNS, in the experiment with SNB-75 CNS and in the experiment on UO-31 renal was above 62.5 µM in each case.
For the compound `CNC(=O)N(C)COC`, the TGI in the experiment on IGROV1 ovarian, in the experiment with OVCAR-3 ovarian, with OVCAR-5 ovarian, in the experiment on OVCAR-8 ovarian, in the experiment on SF-295 CNS and with SF-539 CNS was above 100 µM each time. Also, the TGI in the experiment on SNB-75 CNS and in the experiment on UO-31 renal was above 100 µM throughout.
For the compound `O=C(O)c1cnc2[nH]ccn2c1=O`, the TGI in the experiment with IGROV1 ovarian, in the experiment on MDA-MB-231 breast, in the experiment on OVCAR-3 ovarian, in the experiment on OVCAR-5 ovarian, in the experiment on OVCAR-8 ovarian and with SF-295 CNS was above 100 µM in each case. For the same compound, the TGI in the experiment with SNB-75 CNS and with UO-31 renal was above 100 µM in each case.
`CC(C)CC(NC(=O)OC(C)(C)C)C(=O)NC(CCC(=O)OCc1ccc([N+](=O)[O-])cc1)C(=O)OCc1ccc([N+](=O)[O-])cc1` (stereo not drawn) (Boc-Leu-Glu(ONb)-ONb; configuration not given here): the TGI with IGROV1 ovarian is 47.6 µM; in the experiment on MDA-MB-231 breast, above 100 µM; in the experiment on OVCAR-3 ovarian it was 77.4 µM; in the experiment on OVCAR-5 ovarian, above 100 µM; with OVCAR-8 ovarian, above 100 µM; in the experiment on SF-295 CNS, above 100 µM. Also, the values for the TGI with SF-539 CNS, in the experiment with SNB-75 CNS and in the experiment with UO-31 renal were 37.2 µM, 31.9 µM and above 100 µM, respectively.
Take `CCN1CCN(c2nc3ccc([N+](=O)[O-])cc3nc2C(=O)c2ccccc2)CC1`: the TGI with IGROV1 ovarian came to 18.9 µM; in the experiment on MDA-MB-231 breast, 28.7 µM; in the experiment on OVCAR-3 ovarian, 30.6 µM; in the experiment with OVCAR-5 ovarian, 36.1 µM; in the experiment with OVCAR-8 ovarian, 30.5 µM; in the experiment with SF-295 CNS it was 30.3 µM. For the same compound, the TGI in the experiment on SF-539 CNS is 29.7 µM; with UO-31 renal, 25.2 µM.
